Source: PubChem BioAssay (NCI)
“And” between values parts separate entries of the source, which are not always exact repeats. Equal entries are not always repeated.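 How tested: cells in 96-well plates exposed to compound for 48 hours at five concentrations. GI50: concentration for 50% inhibition of growth. Definition used: TGI = concentration required for complete inhibition of growth.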

What was measured:
Test in all cases: inhibition of tumour cell growth, NCI panel, 48 h
[1] = tested on: OVCAR-3 ovarian
[2] = tested on: SN12C renal
[3] = tested on: OVCAR-8 ovarian
[4] = tested on: A498 renal
[5] = tested on: M14 melanoma
[6] = tested on: KM12 colon
[7] = tested on: ACHN renal
[8] = tested on: NCI-H522 lung
[9] = tested on: MOLT-4 leukemia
[10] = tested on: SR leukemia

For `O=C(Nc1ccc(Cl)cc1Cl)C(=O)C(C(=O)c1ccc2ccccc2c1)C1OC(=O)c2ccccc21` (centres undefined), the TGI [1] was 26.1 µM, the TGI [2] was 30.7 µM and the TGI [3] was 34.6 µM. It also gave a TGI [4] of 20.2 µM, a TGI [5] of 28 µM and a TGI [6] of 31.9 µM. The TGI [7] was greater than 100 µM.

`COc1ccc2c(c1)/C(=C\c1cccnc1)C(=O)N2` was tested, and the GI50 [1] was 40.5 µM, the TGI [1] was greater than 100 µM and the GI50 [8] was 17.8 µM. It also gave a TGI [8] of 64 µM, a GI50 [2] of 7.38 µM and a TGI [2] of 29.4 µM. It also gave a GI50 [3] of 11.8 µM, a TGI [3] of 43.6 µM and a GI50 [4] of 23.4 µM. The TGI [4] was 49.8 µM, the GI50 [9] was 23 µM and the TGI [9] was greater than 100 µM. It also gave a GI50 [5] of 31 µM, a TGI [5] of 83.8 µM and a GI50 [6] of 19.7 µM. The TGI [6] was 57.8 µM, the GI50 [7] was 18.5 µM and the TGI [7] was 38.9 µM.

For `CCCNCCCC(NC(C)=O)C(=O)NCc1ccccc1` (centres undefined), the TGI [1] was greater than 100 µM, the TGI [8] was greater than 100 µM and the TGI [2] was greater than 100 µM. The TGI [3] was greater than 100 µM, the TGI [4] was greater than 100 µM and the TGI [9] was greater than 100 µM. The TGI [5] was greater than 100 µM, the TGI [6] was greater than 100 µM and the TGI [7] was greater than 100 µM.

Compound `O=C(c1ccc(Cl)cc1)c1ccc(OCCCCCCCCCCOc2ccc(C(=O)c3ccc(Cl)cc3)cc2)cc1` has a TGI [1] greater than 100 µM, a TGI [8] greater than 100 µM and a TGI [2] greater than 100 µM. The TGI [3] was greater than 100 µM, the TGI [4] was greater than 100 µM and the TGI [9] was greater than 100 µM. For the same compound, the TGI [6] was greater than 100 µM and the TGI [7] was greater than 100 µM.

For `O=[N+]([O-])c1ccc(S(=O)Cc2ccccc2)c([N+](=O)[O-])c1` (centres undefined), the GI50 [1] was 1.84 µM, the TGI [1] was 3.24 µM and the GI50 [8] was 1.32 µM. It also gave a TGI [8] of 2.94 µM, a GI50 [2] of 11.6 µM and a TGI [2] of 33.1 µM. It also gave a GI50 [3] of 3.02 µM, a TGI [3] of 10.5 µM and a GI50 [4] of 13 µM. The TGI [4] was 25.7 µM, the GI50 [9] was 2.1 µM and the TGI [9] was 4.88 µM. The GI50 [5] was 1.81 µM, the TGI [5] was 4.84 µM and the GI50 [6] was 15.6 µM. For the same compound, the TGI [6] was 29.4 µM, the GI50 [7] was 1.62 µM and the TGI [7] was 3.07 µM.

In the case of `Oc1cc(O)c(Oc2cccc(O)c2O)c(O)c1`, the TGI [1] is reported as greater than 100 µM, the TGI [8] is reported as greater than 100 µM and the TGI [2] is reported as greater than 100 µM. For the same compound, the TGI [3] was greater than 100 µM, the TGI [4] was greater than 100 µM and the TGI [9] was greater than 100 µM. The TGI [5] was greater than 100 µM, the TGI [6] was greater than 100 µM and the TGI [7] was greater than 100 µM.

`O=C([CH-]C(=O)c1ccccc1)c1ccccc1.O=C([CH-]C(=O)c1ccccc1)c1ccccc1.O=C([CH-]C(=O)c1ccccc1)c1ccccc1.[Nd+3].[OH3+]` was tested, and the GI50 [1] was 3.01 µM, the TGI [1] was 14.8 µM and the GI50 [8] was 2.06 µM. For the same compound, the TGI [8] was 7.28 µM, the GI50 [2] was 11.1 µM and the TGI [2] was 68.8 µM. It also gave a GI50 [3] of 3.3 µM, a TGI [3] of 22.1 µM and a GI50 [4] of 9 µM. It also gave a TGI [4] of 27.3 µM, a GI50 [9] of 2.24 µM and a TGI [9] of 12.5 µM. The GI50 [5] was 6.89 µM, the TGI [5] was 21.2 µM and the GI50 [6] was 6.02 µM. The TGI [6] was 37.9 µM, the GI50 [7] was 5.93 µM and the TGI [7] was 21.2 µM.

`CS(=O)(=O)OCCN1CCN(C(=O)c2cccc3c(Nc4ccc(S(=O)(=O)N=C(N)N)cc4)c4ccccc4nc23)CC1` showed a TGI [1] greater than 100 µM, a TGI [2] greater than 100 µM and a TGI [3] greater than 100 µM. For the same compound, the TGI [4] was greater than 100 µM, the TGI [9] was greater than 100 µM and the TGI [5] was greater than 100 µM. It also gave a TGI [6] greater than 100 µM and a TGI [7] greater than 100 µM.

In the case of `CCN(CC)CCNc1ccc([N+](=O)[O-])c2sc3ccccc3c(=O)c12`, the GI50 [1] is reported as 1.32 µM, the TGI [1] is reported as 2.69 µM and the GI50 [2] is reported as 1.07 µM. The TGI [2] was 11.4 µM, the GI50 [3] was 0.571 µM and the TGI [3] was 2.42 µM. The GI50 [4] was 0.591 µM, the TGI [4] was 2.16 µM and the GI50 [9] was 0.386 µM. It also gave a TGI [9] of 1.87 µM, a GI50 [5] of 1.36 µM and a TGI [5] of 2.85 µM. The GI50 [6] was 1.19 µM, the TGI [6] was 2.55 µM and the GI50 [7] was 0.646 µM. It also gave a TGI [7] of 4.44 µM.

With `O=C(/C=C/c1ccccc1)CC1OC(=O)c2ccccc21` (centres undefined) the TGI [8] was greater than 100 µM, the TGI [3] was greater than 100 µM and the TGI [4] was greater than 100 µM. For the same compound, the TGI [9] was greater than 100 µM, the TGI [5] was greater than 100 µM and the TGI [6] was greater than 100 µM. For the same compound, the TGI [7] was greater than 100 µM.

`Nc1nc2c(c(=O)[nH]1)NC(CO)CN2` (centres undefined) gave a TGI [1] greater than 100 µM, a TGI [8] greater than 100 µM and a TGI [2] greater than 100 µM. The TGI [3] was greater than 100 µM, the TGI [9] was greater than 100 µM and the TGI [5] was greater than 100 µM. The TGI [6] was greater than 100 µM and the TGI [7] was greater than 100 µM.

`CC(=O)N[C@@H]1C(O)CN2C(=O)C(=O)O[C@H](C(O)CO)[C@@H]12` (some centres undefined) gave a TGI [1] greater than 100 µM, a TGI [8] greater than 100 µM and a TGI [3] greater than 100 µM. For the same compound, the TGI [4] was greater than 100 µM, the TGI [9] was greater than 100 µM and the TGI [6] was greater than 100 µM. It also gave a TGI [7] greater than 100 µM.

`COc1ccc2c(c1)C(=O)c1c-2n(CCCN=[N+]=[N-])c(=O)c2cc(N(C)C)ccc12` showed a GI50 [1] greater than 100 µM, a TGI [1] greater than 100 µM and a GI50 [8] of 11.2 µM. For the same compound, the TGI [8] was 92.4 µM, the GI50 [2] was greater than 100 µM and the TGI [2] was greater than 100 µM. The GI50 [3] was 84.6 µM, the TGI [3] was greater than 100 µM and the GI50 [4] was greater than 100 µM. It also gave a TGI [4] greater than 100 µM, a GI50 [9] greater than 100 µM and a TGI [9] greater than 100 µM. It also gave a GI50 [5] greater than 100 µM, a TGI [5] greater than 100 µM and a GI50 [6] of 3.66 µM. For the same compound, the TGI [6] was greater than 100 µM, the GI50 [7] was greater than 100 µM and the TGI [7] was greater than 100 µM.

Work on `COc1ccc(-c2cc(=O)c3c(C)cc(C)nc3[nH]2)cc1` yielded a GI50 [1] of 32.7 µM, a TGI [1] greater than 100 µM and a TGI [8] greater than 100 µM. It also gave a TGI [2] greater than 100 µM, a TGI [3] greater than 100 µM and a TGI [4] greater than 100 µM. It also gave a TGI [9] of 42.9 µM, a TGI [5] greater than 100 µM and a TGI [6] greater than 100 µM. For the same compound, the TGI [7] was greater than 100 µM.

`CC1CC#CCOC(=O)CCCC1=O` (centres undefined) gave a TGI [1] greater than 100 µM, a TGI [8] greater than 100 µM and a TGI [2] greater than 100 µM. The TGI [3] was greater than 100 µM, the TGI [9] was greater than 100 µM and the TGI [5] was greater than 100 µM. For the same compound, the TGI [6] was greater than 100 µM.

`COc1ccccc1N=C(N)N/N=C/c1c[nH]c2ccccc12` gave a TGI [10] of 26.9 µM, a TGI [1] of 25.7 µM and a TGI [8] of 19.8 µM. The TGI [2] was 22.7 µM, the TGI [3] was 28.2 µM and the TGI [9] was 23.4 µM. The TGI [5] was 10.5 µM, the TGI [6] was 29.6 µM and the TGI [7] was 22 µM.

In the case of `CC[C@@]1(O)C[C@H](OC2CC(N(C)C)C(OC3CC(O)C(OC4CCC(=O)C(C)O4)C(C)O3)C(C)O2)c2c(cc3c(c2O)C(=O)c2c(O)cccc2C3=O)[C@H]1C(=O)OC` (some centres undefined), the TGI [1] is reported as 0.6 µM and 0.169 µM, the TGI [3] is reported as 0.956 µM and 0.404 µM and the TGI [4] is reported as 0.0539 µM and 0.0599 µM. For the same compound, the TGI [5] was 0.149 µM, the TGI [6] was 0.519 µM and 0.56 µM and the TGI [7] was 0.579 µM.

Compound `Cc1c(S(C)(=O)=O)c(-c2cc(F)cc(N3CCN(c4ccc(NS(=O)(=O)c5ccc(N[C@H](CCN6CCC(C(=O)OCCCP(=O)(O)O)CC6)CSc6ccccc6)c(S(=O)(=O)C(F)(F)F)c5)cc4)CC3)c2)c(-c2ccc(Cl)cc2)n1C(C)C` has a GI50 [1] greater than 100 µM, a TGI [1] greater than 100 µM and a GI50 [8] greater than 100 µM. The TGI [8] was greater than 100 µM, the GI50 [2] was greater than 100 µM and the TGI [2] was greater than 100 µM. For the same compound, the GI50 [3] was greater than 100 µM, the TGI [3] was greater than 100 µM and the GI50 [4] was greater than 100 µM. It also gave a TGI [4] greater than 100 µM, a GI50 [5] greater than 100 µM and a TGI [5] greater than 100 µM. It also gave a GI50 [6] greater than 100 µM, a TGI [6] greater than 100 µM and a GI50 [7] greater than 100 µM. It also gave a TGI [7] greater than 100 µM.
